Measured values as given in patent US8450374B2, “Pan-antagonists for the androgen receptor and androgen receptor mutants associated with anti-androgen withdrawal” (priority 2009, dated 2013).
Residue numbers refer to the chain shown, from its start.

Columns and labels:
AR wt = target: T1, AR wt (Homo sapiens, UniProt P10275); test: Transcription assay (ARE-luciferase reporter) in CV-1 cells, wild-type AR; assay type: cell-based; parameters: expressed in transfected cells; host or cells: CV-1; conditions: for Antagonist efficacy (RLU value at IC50), AR wt: in competition with 3 nM DHT, normalized to 10 nM DHT in hAR(wt)
T1 sequence (P10275 1-920): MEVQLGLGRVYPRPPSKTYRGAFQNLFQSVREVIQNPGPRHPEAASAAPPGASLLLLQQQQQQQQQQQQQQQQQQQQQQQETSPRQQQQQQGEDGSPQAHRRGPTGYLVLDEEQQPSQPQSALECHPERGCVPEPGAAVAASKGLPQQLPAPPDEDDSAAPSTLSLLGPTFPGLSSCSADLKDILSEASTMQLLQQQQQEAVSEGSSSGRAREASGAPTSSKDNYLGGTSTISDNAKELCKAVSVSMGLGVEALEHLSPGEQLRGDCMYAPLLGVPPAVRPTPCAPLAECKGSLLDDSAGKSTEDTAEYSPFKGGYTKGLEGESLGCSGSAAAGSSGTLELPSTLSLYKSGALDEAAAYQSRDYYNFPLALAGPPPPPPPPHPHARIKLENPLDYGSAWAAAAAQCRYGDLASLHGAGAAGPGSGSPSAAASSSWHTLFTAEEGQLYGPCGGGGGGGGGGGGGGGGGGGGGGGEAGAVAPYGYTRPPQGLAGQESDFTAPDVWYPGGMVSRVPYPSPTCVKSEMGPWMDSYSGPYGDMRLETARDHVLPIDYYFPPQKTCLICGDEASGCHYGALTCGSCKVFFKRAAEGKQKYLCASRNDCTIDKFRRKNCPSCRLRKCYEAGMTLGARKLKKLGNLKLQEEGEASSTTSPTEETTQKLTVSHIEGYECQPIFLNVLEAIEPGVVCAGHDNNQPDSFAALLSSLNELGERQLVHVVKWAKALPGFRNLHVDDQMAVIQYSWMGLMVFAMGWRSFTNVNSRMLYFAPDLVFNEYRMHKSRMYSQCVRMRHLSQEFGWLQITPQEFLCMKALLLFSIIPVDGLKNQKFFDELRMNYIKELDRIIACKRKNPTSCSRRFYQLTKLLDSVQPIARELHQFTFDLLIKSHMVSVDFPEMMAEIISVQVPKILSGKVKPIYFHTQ
Procedure: (§1) Twenty-four hours prior to transfection, CV-1 cells were seeded at a density of 45,000 cells per well in 24-well cell culture plates and grown in phenol red free Dulbecco's Modified Eagle Medium (DMEM) supplemented with 10% cosmic calf serum (COS). ARE-luciferase reporter and Renilla-Luc as the internal standard and a prokaryotic expression vector encoding the wild-type androgen receptor or mutant androgen receptor were transfected with Lipofectamine (Invitrogen) following manufacturer's protocol. Five hours after transfection, media was added containing the appropriate concentrations of ligands. The cells were allowed to incubate for 38 hours before harvesting by passive lysis buffer. Cell extracts were immediately assayed using the Dual Luciferase Assay (Promega) with a Perkin-Elmer Microbeta Luminometer. […] Dose-response data was analyzed by nonlinear regression analysis using GraphPad Prism.

AR W741C = target: T2, AR W741C (Homo sapiens, UniProt P10275, W742C); test: Transcription assay (ARE-luciferase reporter) in CV-1 cells, AR W741C; assay type: cell-based; parameters: expressed in transfected cells; host or cells: CV-1; conditions: for Antagonist efficacy (RLU value at IC50), AR W741C: in competition with 200 nM DHT
T2 sequence (P10275 1-920 W742C): T1 sequence (P10275 1-920) with W742C
Procedure: as §1

GFP-AR = target: T3, GFP-AR (Homo sapiens, UniProt P10275); test: Nuclear localization of GFP-AR in CV-1 cells; assay type: cell-based; conditions: 2 h after ligand addition; DHT 10 μM, other ligands 100 μM
T3 construct: expressed in transfected cells; host or cells: CV-1 monkey kidney cells
T3 sequence (P10275 1-920): T1 sequence (P10275 1-920)
Procedure: Nuclear localization of GFP-AR in CV-1 cells grown in 10% charcoal stripped CCS/DMEM.
CV-1 monkey kidney cells were seeded in a 12 well plate at a concentration of 50,000 cells per well. After 24 h, the cells were transfected with GFP-AR in a solution of Opti-MEM and Lipofectamine 2000, and incubated overnight. The cells were then imaged on a fluorescent microscope, followed by the addition of 6 respective ligands, and control (DMSO vehicle). […] The cells were incubated for two hours and again imaged. The cells were fixed, and stained (DAPI) to image the nucleus.

[1] = target: T4, AR ligand-binding domain (LBD) (Homo sapiens, UniProt P10275); test: Coactivator peptide recruitment by TR-FRET; assay type: biochemical; conditions: read after 2 h and 4 h incubation
T4 construct: purchased Invitrogen PV8431
T4 sequence (P10275 669-900 limits assumed): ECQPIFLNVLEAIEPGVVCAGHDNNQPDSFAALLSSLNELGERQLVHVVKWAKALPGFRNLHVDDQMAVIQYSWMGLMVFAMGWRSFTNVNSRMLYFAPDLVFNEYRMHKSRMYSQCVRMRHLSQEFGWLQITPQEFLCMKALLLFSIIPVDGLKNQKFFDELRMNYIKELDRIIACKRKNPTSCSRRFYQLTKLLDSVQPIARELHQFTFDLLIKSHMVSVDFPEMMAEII
Procedure: Briefly, serial dilutions of ligand stocks solutions (in DMSO) were made in TR-FRET coregulator buffer A in a 384 well plate. To each well was added a 4×-stock solution of the AR-LBD followed by a 4× stock solution of fluorescein D-11 peptide and lanthanide-labeled antiGST antibody. The plates were read by time resolved fluorescence after 2 h and 4 h incubation.

[2] = test system: AR protein levels in CRW22 cells; test: AR downregulation by western blot, CRW22RV1 cells; assay type: cell-based; conditions: CRW22RV1 cells, 10, 50 or 100 μM, 24 h
Procedure: Compounds that down regulate the levels of AR in prostate cancer may be effective in androgen dependent cells and anti-androgen resistant cells that over express the androgen receptor. […] LNCaP or CRW22RV1 cells were treated with 10 μM, 50 μM or 100 μM compound for 24 h. Cells were harvested and lysed. Cell lysates were analyzed by SDS-PAGE followed by immunostaining with anti-AR and anti-lamin antibodies (see FIGS. 15 and 16).

## CN(C)CCCOc1cccc(Cc2ccccc2S(=O)(=O)CC(C)(O)C(=O)Nc2ccc(C#N)c(C(F)(F)F)c2)c1 (stereo not shown) [PAN22]
AR wt
  IC50: 2 ± 2.2 µM
  Antagonist efficacy (RLU value at IC50), AR wt: (50% ± 30%)
AR W741C
  IC50: 5.6 ± 0.8 µM
  Antagonist efficacy (RLU value at IC50), AR W741C: (53% ± 2.1%)

## CC(O)(CS(=O)(=O)c1ccccc1-c1ccccc1O)C(=O)Nc1ccc(C#N)c(C(F)(F)F)c1 (stereo not shown) [PAN41, N-(4-cyano-3-(trifluoromethyl)phenyl)-2-hydroxy-3-(2′-hydroxybiphenyl-2-ylsulfonyl)-2-methylpropanamide]
AR wt
  IC50: 1.2 ± 0.5 µM
  Antagonist efficacy (RLU value at IC50), AR wt: (45% ± 14%)
AR W741C
  IC50: 8 ± 2.6 µM
  Antagonist efficacy (RLU value at IC50), AR W741C: (50% ± 1.0%)

## CN(C)CCCOc1cccc(-c2ccccc2S(=O)(=O)CC(C)(O)C(=O)Nc2ccc(C#N)c(C(F)(F)F)c2)c1 (stereo not shown) [PAN52]
GFP-AR
  Nuclear localization of GFP-AR fluorescence: little to no nuclear localization
AR wt
  IC50: 3.5 ± 2 µM
  Antagonist efficacy (RLU value at IC50), AR wt: (49% ± 4.4%)
[1]
  Coactivator peptide (D11, FXXLF) association with AR(LBD): do not show coactivator association
[2]
  AR protein levels relative to bicalutamide, DHT or DMSO controls: downregulation of AR protein levels
AR W741C
  IC50: 5.9 ± 2.5 µM
  Antagonist efficacy (RLU value at IC50), AR W741C: (50% ± 1.0%)

## CN(C)CCCOc1ccc(-c2ccccc2S(=O)(=O)CC(C)(O)C(=O)Nc2ccc(C#N)c(C(F)(F)F)c2)cc1 (stereo not shown) [PAN62]
AR wt
  IC50: 2.3 ± 0.9 µM
  Antagonist efficacy (RLU value at IC50), AR wt: (51% ± 9.1%)
AR W741C
  IC50: 15 ± 17 µM
  Antagonist efficacy (RLU value at IC50), AR W741C: (56% ± 5.7%)
